Assay results taken from patent publication US20250073357A1, “GADOLINIUM-BASED COMPOUND, AND MRI CONTRAST AGENT INCLUDING SAME” (THERANOCURE CO., LTD., priority 2021, published 2025).

Columns and labels:
[1] = target: amyloid beta polymer (Homo sapiens, UniProt P05067); test: Amyloid beta polymer targeting ability, MRI phantom experiment; type: binding; settings: incubated with amyloid beta polymer 37° C. 24 hours, washed, 9.4T MR
Protocol: • (1) 221.5 uL of HFIP was added to 1 mg of amyloid beta at a concentration of 1 mM, followed by shaking for 1 hour at room temperature using a shaker to remove preaggregation. • (2) The amyloid beta from which the preaggregation was removed was dried, and 221.5 uL of DMSO was added thereto to achieve a 1 mM concentration. Using a mixer and sonicator, a suspension thereof was prepared, and 878.5 uL of PBS (1×, pH 7.4) was added thereto to achieve a 0.2 mM concentration. • (3) After incubating the suspension at 37° C. for 4 days using a shaker, the polymerized amyloid beta polymer was dispensed by 200 uL. Then, 20 μL of a solution in which each of Gd-DO3A-Va and the commercial contrast agent (Gadovist®) was dissolved in PBS at 2 mM concentration was added thereto. The incubation was carried out thereon at 37° C. for 24 hours using a shaker. • (4) After 24 hours has elapsed, centrifugation was performed thereon to remove the supernatant therefrom. The amyloid beta polymer was washed using PBS. 200 μL of a solution of PBS:DMSO=9:1 was added to a pellet to prepare an MRI phantom sample. As a control, a phantom sample obtained by incubating only the amyloid beta polymer was used. […]

[2] = Measurement of relaxivity (r1, r2), phantom in 3T MRI; type: physicochemical; settings: tertiary distilled water, 0.0625-1 mM, linear regression, in mM-1 s-1 (unit assumed)
Protocol: The relaxivity (r1, r2) of each of synthesized Gd-DO3A-Va, and cyclic commercial contrast agents Gadovist® and Dotarem® as comparison groups material was measured. Specifically, a phantom was prepared by diluting the gadolinium complex in tertiary distilled water to five concentrations (0.0625, 0.125, 0.25, 0.5, 1 mM), and then T1 and T2 relaxation times were measured in 3T MRI. Thus, R (Relaxation rate=1/T) of each concentration was calculated and the relaxivity (r1, r2) result of the gadolinium complex was obtained through linear regression analysis (see FIG. 3) and shown in a following Table 1.

amyloid beta polymer, sequence (P05067 672-713 limits assumed): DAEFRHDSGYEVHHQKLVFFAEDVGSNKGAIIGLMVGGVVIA

O=C([O-])CN1CCN(CC(=O)[O-])CCN([C@H](CO)[C@H](O)CO)CCN(CC(=O)[O-])CC1.[Gd+3] (racemic) [Gadovist ®]
contrast enhancement / signal intensity compared to phantom of only amyloid beta polymer [1]: little difference in contrast enhancement effect | relaxivity r1 [2]: 3.9 ± 0.1 | relaxivity r2 [2]: 4.8 ± 0.1

CNC[C@H](O)[C@@H](O)[C@H](O)[C@H](O)CO.O=C([O-])CN1CCN(CC(=O)[O-])CCN(CC(=O)O)CCN(CC(=O)[O-])CC1.[Gd+3] [Dotarem ®]
relaxivity r1 [2]: 3.4 ± 0.1 | relaxivity r2 [2]: 3.9 ± 0.2
